Consider one compound from ChEMBL document CHEMBL3813644, “Utilization of Structure-Based Design to Identify Novel, Irreversible Inhibitors of EGFR Harboring the T790M Mutation” (ACS Med Chem Lett, 2016).

A short description of data set [1]: Antitumor activity against human PC9 cells harboring EGFR exon19 deletion activating mutant xenografted in mouse at 50 mg/kg/day, po qd for 7 days. Particulars: PC-9, po, 168 h, read-out: TGI. It counts as functional.
In data set [2] the test system is NCI-H1975. The data set is described as follows: Antiproliferative activity against human NCI-H1975 cells assessed as growth inhibition incubated for 72 hrs by SYTOX green nucleic acid stain-based fluorescence analysis. It counts as functional. Particulars: NCI-H1975, 72 h.
For data set [3], the target named is T1, Epidermal growth factor receptor (Homo sapiens, UniProt P00533). The data set is described as follows: Inhibition of wild-type human EGFR at 1 uM.
Data set [4] relates to Epidermal growth factor receptor (Homo sapiens), P00533 [L858R,T790M]. Nature of the data set: Inhibition of human EGFR T790M/L858R double mutant at 1 uM. It counts as protein assay.
The nature of data set [5]: Solubility of compound at pH 7.4. Format: physicochemical. Particulars: buffer.
Data set [6] has as its system NCI-H1975. Nature of the data set: Antitumor activity against human NCI-H1975 cells harboring EGFR T790M/L858R double mutant xenografted in mouse at 50 mg/kg/day, po qd for 7 days. It counts as functional. Particulars: 168 h, read-out: TGI. On the technique in general: A xenograft is tissue or cells of one species grown in another, often human tumour cells in immunodeficient mice.

Data set [7] is described as follows: Selectivity ratio of GI50 for human Calu6 cells to GI50 for human NCI-H1975 cells. Format: ADME, cell-based. As to conditions: Calu6 cells and NCI-H1975 cells, read-out: RatioGI50.
The nature of data set [8]: Intrinsic clearance in human liver microsomes. It counts as ADME. As to conditions: read-out: CLH.
Another data set concerns A-431. Nature of the data set: Antitumor activity against human A431 cells harboring wild-type EGFR xenografted in mouse at 50 mg/kg/day, po qd for 7 days. Format: functional. Particulars: A-431, po, 168 h, read-out: TGI.
Data set [9] concerns the target T2, Epidermal growth factor receptor (Homo sapiens, UniProt P00533, L858R/T790M). Nature of the data set: Inhibition of EGFR T790M/L858R double mutant autophosphorylation in human NCI-H1975 cells incubated for 2 hrs by ELISA. It counts as cell-based. (In general: ELISA stands for enzyme-linked immunosorbent assay.)
Data set [10] deals with Epidermal growth factor receptor (Homo sapiens, UniProt P00533, EX19DEL). Nature of the data set: Inhibition of EGFR exon19 deletion activating mutant autophosphorylation in human PC9 cells incubated for 2 hrs by ELISA. It counts as cell-based, PC-9.
Data set [11] addresses T3, Tyrosine-protein kinase JAK3 (Homo sapiens) (UniProt P52333).
T3 sequence (whole entry): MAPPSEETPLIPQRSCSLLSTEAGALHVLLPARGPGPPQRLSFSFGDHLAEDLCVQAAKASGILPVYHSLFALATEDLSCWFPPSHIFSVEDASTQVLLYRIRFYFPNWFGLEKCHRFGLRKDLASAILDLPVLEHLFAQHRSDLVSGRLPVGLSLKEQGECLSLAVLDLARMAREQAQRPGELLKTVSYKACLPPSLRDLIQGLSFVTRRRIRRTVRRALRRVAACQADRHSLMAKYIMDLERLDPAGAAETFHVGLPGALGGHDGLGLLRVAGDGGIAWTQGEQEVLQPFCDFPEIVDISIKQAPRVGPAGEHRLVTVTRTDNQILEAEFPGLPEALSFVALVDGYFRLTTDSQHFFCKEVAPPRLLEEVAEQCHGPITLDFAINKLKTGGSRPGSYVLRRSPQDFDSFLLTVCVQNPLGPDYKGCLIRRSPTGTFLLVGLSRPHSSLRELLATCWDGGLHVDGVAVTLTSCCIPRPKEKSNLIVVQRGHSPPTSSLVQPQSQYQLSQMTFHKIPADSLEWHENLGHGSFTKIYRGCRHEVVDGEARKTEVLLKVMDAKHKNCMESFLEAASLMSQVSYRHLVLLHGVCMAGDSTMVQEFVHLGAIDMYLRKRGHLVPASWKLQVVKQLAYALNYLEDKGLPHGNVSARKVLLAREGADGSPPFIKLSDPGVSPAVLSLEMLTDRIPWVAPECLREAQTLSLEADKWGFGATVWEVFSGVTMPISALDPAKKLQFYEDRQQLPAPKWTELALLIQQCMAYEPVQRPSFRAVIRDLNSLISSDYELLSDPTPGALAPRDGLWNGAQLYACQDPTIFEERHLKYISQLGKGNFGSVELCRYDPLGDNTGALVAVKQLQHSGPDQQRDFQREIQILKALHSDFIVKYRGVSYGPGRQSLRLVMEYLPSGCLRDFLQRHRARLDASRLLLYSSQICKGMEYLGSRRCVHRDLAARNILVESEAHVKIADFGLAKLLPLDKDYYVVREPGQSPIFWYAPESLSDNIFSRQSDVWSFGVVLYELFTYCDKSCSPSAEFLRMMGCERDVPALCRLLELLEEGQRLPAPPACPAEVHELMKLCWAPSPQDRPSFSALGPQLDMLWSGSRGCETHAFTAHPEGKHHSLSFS
The data set is described as follows: Inhibition of human JAK3 at 1 uM.

Data set [12] can be described thus: Antiproliferative activity against human PC9 cells assessed as growth inhibition incubated for 72 hrs by SYTOX green nucleic acid stain-based fluorescence analysis. Format: functional. Particulars: PC-9, 72 h.
Data set [13] is described as follows: Antiproliferative activity against human Calu6 cells incubated for 72 hrs by SYTOX green nucleic acid stain-based fluorescence analysis. It counts as cell-based, Calu-6.
Data set [14] deals with T2, Epidermal growth factor receptor. Nature of the data set: Inhibition of recombinant N-terminal GST-tagged human EGFR T790M/L858R double mutant using biotinylated TK substrate incubated for 50 mins by HTRF assay. Format: protein assay. Background: Time-resolved FRET reads energy transfer from a long-lived donor to a nearby acceptor.
For data set [15], the target named is T1, Epidermal growth factor receptor. Nature of the data set: Inhibition of wild-type EGFR autophosphorylation in human LoVo cells incubated for 2 hrs followed by EGF-stiumlation for 10 mins by ELISA. It counts as cell-based.
The subject of a further data set is Mus musculus. The data set is described as follows: T>EC50 in female nude mouse assessed as time duration during which plasma concentration covers cellular EC50 for EGFR T790M/L858R double mutant autophosphorylation in human NCI-H1975 cells at 50 mg/kg, po. Particulars: in vivo. Format: ADME, organism-based.

T1 sequence (P00533 whole entry): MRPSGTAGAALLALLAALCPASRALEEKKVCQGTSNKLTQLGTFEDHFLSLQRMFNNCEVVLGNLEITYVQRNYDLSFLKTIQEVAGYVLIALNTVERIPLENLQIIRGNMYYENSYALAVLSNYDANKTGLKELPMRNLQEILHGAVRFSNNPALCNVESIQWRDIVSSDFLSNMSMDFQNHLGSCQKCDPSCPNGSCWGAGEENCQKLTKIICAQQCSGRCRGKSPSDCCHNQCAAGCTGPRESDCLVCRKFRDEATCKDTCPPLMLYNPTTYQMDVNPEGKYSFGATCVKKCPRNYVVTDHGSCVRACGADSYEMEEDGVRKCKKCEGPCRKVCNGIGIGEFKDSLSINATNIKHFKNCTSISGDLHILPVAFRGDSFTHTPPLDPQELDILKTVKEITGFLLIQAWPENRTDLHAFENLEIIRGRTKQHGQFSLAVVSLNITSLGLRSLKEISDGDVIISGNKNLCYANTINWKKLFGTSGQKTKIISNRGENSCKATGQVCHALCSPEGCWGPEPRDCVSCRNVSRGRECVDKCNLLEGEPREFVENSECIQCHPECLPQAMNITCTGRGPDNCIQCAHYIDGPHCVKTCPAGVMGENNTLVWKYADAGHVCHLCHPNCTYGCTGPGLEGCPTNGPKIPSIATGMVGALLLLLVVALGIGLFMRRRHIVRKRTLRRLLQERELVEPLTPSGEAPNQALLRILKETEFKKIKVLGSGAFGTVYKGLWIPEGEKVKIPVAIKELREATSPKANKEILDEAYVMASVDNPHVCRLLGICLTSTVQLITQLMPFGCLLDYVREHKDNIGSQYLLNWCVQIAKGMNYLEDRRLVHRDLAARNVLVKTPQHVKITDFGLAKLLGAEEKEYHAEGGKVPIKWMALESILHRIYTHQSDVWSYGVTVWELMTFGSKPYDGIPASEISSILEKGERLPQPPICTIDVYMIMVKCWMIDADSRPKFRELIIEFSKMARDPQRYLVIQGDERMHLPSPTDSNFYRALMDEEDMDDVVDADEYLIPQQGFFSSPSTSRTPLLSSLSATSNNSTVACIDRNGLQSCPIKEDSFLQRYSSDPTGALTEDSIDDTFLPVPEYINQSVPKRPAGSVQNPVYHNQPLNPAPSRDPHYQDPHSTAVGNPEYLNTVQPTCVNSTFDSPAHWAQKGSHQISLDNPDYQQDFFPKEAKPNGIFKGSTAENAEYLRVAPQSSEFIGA
T2 sequence (P00533 25-1210 T790M/L858R limits assumed): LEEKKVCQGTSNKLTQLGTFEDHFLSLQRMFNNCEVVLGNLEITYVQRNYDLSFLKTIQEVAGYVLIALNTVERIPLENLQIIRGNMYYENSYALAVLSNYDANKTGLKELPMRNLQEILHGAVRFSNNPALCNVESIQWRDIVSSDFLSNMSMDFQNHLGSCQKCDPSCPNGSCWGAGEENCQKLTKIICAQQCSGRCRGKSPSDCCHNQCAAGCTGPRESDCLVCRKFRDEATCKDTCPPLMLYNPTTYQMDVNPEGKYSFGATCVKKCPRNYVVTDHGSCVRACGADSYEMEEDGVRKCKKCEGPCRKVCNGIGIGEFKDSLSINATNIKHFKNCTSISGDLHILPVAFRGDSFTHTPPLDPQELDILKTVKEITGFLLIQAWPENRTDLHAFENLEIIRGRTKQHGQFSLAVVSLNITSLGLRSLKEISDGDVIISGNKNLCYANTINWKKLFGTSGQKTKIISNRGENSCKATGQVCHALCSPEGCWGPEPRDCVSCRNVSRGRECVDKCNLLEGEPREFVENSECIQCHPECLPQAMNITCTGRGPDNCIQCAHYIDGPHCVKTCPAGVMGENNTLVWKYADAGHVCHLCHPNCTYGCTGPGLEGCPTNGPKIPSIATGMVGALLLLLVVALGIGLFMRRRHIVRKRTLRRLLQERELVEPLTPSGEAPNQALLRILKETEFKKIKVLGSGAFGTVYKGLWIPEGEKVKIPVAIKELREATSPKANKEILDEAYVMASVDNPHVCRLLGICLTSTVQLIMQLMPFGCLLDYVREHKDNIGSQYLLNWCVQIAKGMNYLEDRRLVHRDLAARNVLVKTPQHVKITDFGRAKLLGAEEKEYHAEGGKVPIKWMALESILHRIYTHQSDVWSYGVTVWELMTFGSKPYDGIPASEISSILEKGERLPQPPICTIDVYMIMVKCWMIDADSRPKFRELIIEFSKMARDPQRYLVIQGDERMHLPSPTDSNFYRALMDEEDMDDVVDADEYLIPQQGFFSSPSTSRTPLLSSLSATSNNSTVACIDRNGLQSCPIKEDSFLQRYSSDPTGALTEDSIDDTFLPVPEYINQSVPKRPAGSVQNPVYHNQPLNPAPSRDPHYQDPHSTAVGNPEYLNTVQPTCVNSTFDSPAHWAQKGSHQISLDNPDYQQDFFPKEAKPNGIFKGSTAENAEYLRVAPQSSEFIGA
Epidermal growth factor receptor (Homo sapiens, UniProt P00533, EX19DEL), sequence (P00533 whole entry, looked up, stated change not applied): as the sequence (P00533 whole entry) above
Epidermal growth factor receptor (Homo sapiens), P00533 [L858R,T790M], sequence (P00533 whole entry T790M/L858R, looked up): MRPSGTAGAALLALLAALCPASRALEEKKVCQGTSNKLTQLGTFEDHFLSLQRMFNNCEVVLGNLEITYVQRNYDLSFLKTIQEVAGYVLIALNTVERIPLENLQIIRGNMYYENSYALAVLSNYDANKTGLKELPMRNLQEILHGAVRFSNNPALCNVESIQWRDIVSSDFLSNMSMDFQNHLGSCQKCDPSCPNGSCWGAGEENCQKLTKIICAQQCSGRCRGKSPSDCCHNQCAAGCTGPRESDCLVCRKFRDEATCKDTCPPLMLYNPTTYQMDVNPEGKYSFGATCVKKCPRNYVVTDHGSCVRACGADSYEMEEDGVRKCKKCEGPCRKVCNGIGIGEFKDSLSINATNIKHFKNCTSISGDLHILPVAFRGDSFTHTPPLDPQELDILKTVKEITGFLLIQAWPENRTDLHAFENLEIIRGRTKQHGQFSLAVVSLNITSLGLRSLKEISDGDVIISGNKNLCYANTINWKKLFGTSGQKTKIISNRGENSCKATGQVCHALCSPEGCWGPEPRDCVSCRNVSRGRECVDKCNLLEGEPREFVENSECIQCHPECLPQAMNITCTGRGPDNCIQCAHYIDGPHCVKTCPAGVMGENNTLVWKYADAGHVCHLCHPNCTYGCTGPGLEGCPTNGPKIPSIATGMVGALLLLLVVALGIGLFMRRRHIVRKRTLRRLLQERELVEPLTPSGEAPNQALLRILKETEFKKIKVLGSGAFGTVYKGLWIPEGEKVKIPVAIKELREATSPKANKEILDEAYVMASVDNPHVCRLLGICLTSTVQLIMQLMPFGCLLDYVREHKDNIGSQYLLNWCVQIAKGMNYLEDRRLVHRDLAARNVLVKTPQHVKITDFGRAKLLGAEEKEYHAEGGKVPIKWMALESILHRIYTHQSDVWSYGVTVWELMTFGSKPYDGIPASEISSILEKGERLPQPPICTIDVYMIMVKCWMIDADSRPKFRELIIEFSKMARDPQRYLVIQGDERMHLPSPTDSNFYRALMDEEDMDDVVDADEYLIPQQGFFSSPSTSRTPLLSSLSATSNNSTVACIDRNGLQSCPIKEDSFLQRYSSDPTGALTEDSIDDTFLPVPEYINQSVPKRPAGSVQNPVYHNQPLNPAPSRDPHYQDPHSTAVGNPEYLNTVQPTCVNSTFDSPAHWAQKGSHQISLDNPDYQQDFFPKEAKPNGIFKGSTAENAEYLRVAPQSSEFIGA

A word on the GI50: it is the concentration at which growth is held to half of that of the control. In general, inhibition refers to the relative decrease from the control value, in per cent. Low readings indicate a response near the control, high ones a response far below the control. As usually defined, the solubility is the dissolved amount per volume that the medium holds. Usually EC50 stands for the concentration that produces a half-maximal response. Low values mean an effect from little substance, high ones a need for much substance. As usually defined, the IC50 is the concentration needed to halve the response being measured. Consider `C=CC(=O)Nc1cccc(-n2c(-c3nc(-c4cnn(C5CCN(C)CC5)c4)cnc3N)nc3ccccc32)c1`, for which the figures for the inhibition in vivo at 50 mg/kg/day (in data set [1]; in the data set on NCI-H1975 [6]; in the data set on A-431) were 238%, 117% and 21%, respectively. For the same compound, the values for the GI50 (in the data set with NCI-H1975 [2]; in data set [12]) were 25 nM and 16 nM, respectively. Further, the inhibition in data set [3], in data set [4] and in [11] was more than 75% in each case. Also, the solubility in data set [5] was less than 10 µM. Moreover, in data set [7], the selectivity ratio is more than 60. In addition, in [8], the microsomal CLint came out at 120 µL/min/mg. Further, the concentration giving a half-maximal response (EC50) came out at 14 nM in data set [9], 9 nM in data set [10] and 980 nM in [15]. In data set [13], this compound registered a GI50 at 72 h of 1700 nM. Besides, in [14], the IC50 was less than 1 nM. Moreover, the Time in the data set on Mus musculus came out at 6 h.
